# Assay results published in ChEMBL document CHEMBL5233247, “Recent advances in DNA gyrase-targeted antimicrobial agents” (Eur J Med Chem, 2020).
# Several values for one entry are separate records, joined by “and”; a condition that tells them apart may be missing. Identical values can stand only once.
# Experiments:
# Escherichia coli [1] = experiment: Antimicrobial activity against Escherichia coli assessed as inhibition of visible growth incubated for 24 hrs by agar-dilution method; assay type: functional
# [2] = system: Salmonella enterica subsp. enterica serovar Gallinarum; experiment: Antimicrobial activity against Salmonella gallinarum assessed as inhibition of visible growth incubated for 24 hrs by agar-dilution method; assay type: functional
# Staphylococcus aureus [3] = experiment: Antimicrobial activity against Staphylococcus aureus assessed as inhibition of visible growth incubated for 24 hrs by agar-dilution method; assay type: functional
# Listeria monocytogenes = experiment: Antimicrobial activity against Listeria monocytogenes assessed as inhibition of visible growth incubated for 24 hrs by agar-dilution method; assay type: functional
# Pseudomonas aeruginosa = experiment: Antimicrobial activity against Pseudomonas aeruginosa MTCC 424 assessed as zone of inhibition incubated for 24 hrs by agar well diffusion method; assay type: functional
# Escherichia coli [4] = experiment: Antimicrobial activity against Escherichia coli MTCC 443 assessed as zone of inhibition incubated for 24 hrs by agar well diffusion method; assay type: functional
# Streptococcus pyogenes = experiment: Antimicrobial activity against […] MTCC 442 assessed as zone of inhibition incubated for 24 hrs by agar well diffusion method; assay type: functional
# Staphylococcus aureus [5] = experiment: Antimicrobial activity against Staphylococcus aureus MTCC 96 assessed as zone of inhibition incubated for 24 hrs by agar well diffusion method; assay type: functional
# DNA gyrase [6] = target: T1, DNA gyrase (Staphylococcus aureus, UniProt P0A0K8+P20831); experiment: Inhibition of Staphylococcus aureus DNA gyrase; assay type: protein-complex assay
# T1 sequence (P0A0K8 whole entry): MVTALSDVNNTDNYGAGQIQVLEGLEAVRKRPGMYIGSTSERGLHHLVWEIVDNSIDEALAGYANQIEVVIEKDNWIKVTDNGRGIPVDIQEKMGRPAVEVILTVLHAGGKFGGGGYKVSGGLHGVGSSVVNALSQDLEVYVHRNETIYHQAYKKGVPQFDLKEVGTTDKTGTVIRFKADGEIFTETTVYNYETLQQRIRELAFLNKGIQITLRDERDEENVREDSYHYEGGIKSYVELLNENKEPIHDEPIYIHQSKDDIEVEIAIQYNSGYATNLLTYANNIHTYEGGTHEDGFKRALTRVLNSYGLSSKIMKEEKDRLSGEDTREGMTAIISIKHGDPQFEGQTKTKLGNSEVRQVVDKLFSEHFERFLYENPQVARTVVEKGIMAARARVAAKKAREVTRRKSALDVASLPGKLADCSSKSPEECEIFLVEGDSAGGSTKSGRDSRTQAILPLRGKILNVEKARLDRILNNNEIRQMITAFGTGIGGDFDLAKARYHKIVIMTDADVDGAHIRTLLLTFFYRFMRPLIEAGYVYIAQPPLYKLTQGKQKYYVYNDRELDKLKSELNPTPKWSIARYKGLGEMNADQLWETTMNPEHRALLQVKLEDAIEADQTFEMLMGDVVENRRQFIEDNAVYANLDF
# T1 sequence (P20831 whole entry): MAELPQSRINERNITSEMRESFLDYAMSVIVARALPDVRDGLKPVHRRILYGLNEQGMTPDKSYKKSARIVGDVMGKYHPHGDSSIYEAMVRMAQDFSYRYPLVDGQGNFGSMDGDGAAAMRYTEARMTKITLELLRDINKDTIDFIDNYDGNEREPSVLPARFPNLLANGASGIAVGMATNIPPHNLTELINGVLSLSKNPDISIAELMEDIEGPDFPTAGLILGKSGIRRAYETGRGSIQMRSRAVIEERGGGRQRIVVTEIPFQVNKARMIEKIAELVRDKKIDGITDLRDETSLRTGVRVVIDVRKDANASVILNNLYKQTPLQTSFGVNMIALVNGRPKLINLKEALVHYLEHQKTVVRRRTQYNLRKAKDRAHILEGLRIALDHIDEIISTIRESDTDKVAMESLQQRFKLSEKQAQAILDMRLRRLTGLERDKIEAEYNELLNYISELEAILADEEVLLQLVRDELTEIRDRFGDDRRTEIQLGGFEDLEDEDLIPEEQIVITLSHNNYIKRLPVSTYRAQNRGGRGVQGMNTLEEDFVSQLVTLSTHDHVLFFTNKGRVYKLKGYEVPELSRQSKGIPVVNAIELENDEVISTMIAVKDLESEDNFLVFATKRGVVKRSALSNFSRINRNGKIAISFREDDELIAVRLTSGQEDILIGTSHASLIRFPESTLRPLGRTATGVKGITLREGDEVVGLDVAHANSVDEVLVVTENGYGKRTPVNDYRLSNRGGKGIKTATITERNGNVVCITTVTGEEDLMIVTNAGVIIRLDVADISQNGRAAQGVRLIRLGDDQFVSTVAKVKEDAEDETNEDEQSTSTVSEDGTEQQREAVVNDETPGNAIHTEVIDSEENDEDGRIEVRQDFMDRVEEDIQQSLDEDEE
# Bacillus cereus = experiment: Antimicrobial activity against Bacillus cereus ATCC 11778 incubated for by the twofold serial agar dilution technique; assay type: functional
# Staphylococcus aureus [7] = experiment: Antimicrobial activity against Staphylococcus aureus ATCC 4163 incubated for by the twofold serial agar dilution technique; assay type: functional
# Staphylococcus aureus [8] = experiment: Antimicrobial activity against Staphylococcus aureus ATCC 25923 incubated for by the twofold serial agar dilution technique; assay type: functional
# Bacillus subtilis [9] = experiment: Antimicrobial activity against Bacillus subtilis ATCC 6633 incubated for by the twofold serial agar dilution technique; assay type: functional
# Staphylococcus aureus [10] = experiment: Antimicrobial activity against Staphylococcus aureus ATCC 6538 incubated for by the twofold serial agar dilution technique; assay type: functional
# Staphylococcus aureus [11] = experiment: Antimicrobial activity against Staphylococcus aureus ATCC 29213 incubated for by the twofold serial agar dilution technique; assay type: functional
# Micrococcus luteus [12] = experiment: Antimicrobial activity against Micrococcus luteus ATCC 10240 incubated for by the twofold serial agar dilution technique; assay type: functional
# [13] = system: Staphylococcus epidermidis; experiment: Antimicrobial activity against Staphylococcus epidermidis ATCC 12228 incubated for by the twofold serial agar dilution technique; assay type: functional
# Micrococcus luteus [14] = experiment: Antimicrobial activity against Micrococcus luteus ATCC 9341 incubated for by the twofold serial agar dilution technique; assay type: functional
# Staphylococcus aureus [15] = experiment: Antimicrobial activity against methicillin-resistant Staphylococcus aureus MTCC 96; assay type: functional
# Enterococcus faecalis [16] = experiment: Antimicrobial activity against Enterococcus faecalis; assay type: functional
# DNA gyrase [17] = target: DNA gyrase (Escherichia coli, UniProt P0AES4+P0AES6); experiment: Inhibition of Escherichia coli DNA gyrase; assay type: protein-complex assay
# Escherichia coli [18] = experiment: Antibacterial activity against Escherichia coli; assay type: functional
# Salmonella typhimurium = experiment: Antibacterial activity against Salmonella typhimurium; assay type: functional, Salmonella enterica subsp. enterica serovar Typhimurium; conditions: Salmonella enterica
# Bacillus subtilis [19] = experiment: Antibacterial activity against Bacillus subtilis; assay type: functional
# Micrococcus luteus [20] = experiment: Antibacterial activity against Micrococcus luteus; assay type: functional
# Staphylococcus aureus [21] = experiment: Antimicrobial activity against methicillin-resistant Staphylococcus aureus assessed as inhibition of bacterial growth by CLSI broth micro plate assay; assay type: functional
# DNA gyrase [22] = target: T1, DNA gyrase; experiment: Inhibition of Staphylococcus aureus DNA gyrase assessed as relaxation of pBR322 DNA by supercoiling assay; assay type: protein-complex assay
# Enterococcus faecalis [23] = experiment: Antimicrobial activity against vancomycin-sensitive Enterococcus faecalis assessed as inhibition of bacterial growth by CLSI broth micro plate assay; assay type: functional
# Staphylococcus aureus [24] = experiment: Antimicrobial activity against methicillin-sensitive Staphylococcus aureus assessed as inhibition of bacterial growth by CLSI broth micro plate assay; assay type: functional
# Enterococcus faecalis [25] = experiment: Antimicrobial activity against vancomycin-resistant Enterococcus faecalis assessed as inhibition of bacterial growth by CLSI broth micro plate assay; assay type: functional
smiles,measurement,setting,value
Cc1ccc(-n2nc(C)c(C(=O)Oc3ncn(-c4ccccc4)n3)c2Cl)cc1,MIC,Escherichia coli [1],0.5 µg/mL
same,MIC,[2],0.5 µg/mL
same,MIC,Staphylococcus aureus [3],0.5 µg/mL
same,MIC,Listeria monocytogenes,0.5 µg/mL
COc1ccc2ccc(F)c(CC(=O)N/N=C/c3ccc(F)cc3F)c2n1,inhibition zone (IZ),Pseudomonas aeruginosa,20 mm
same,inhibition zone (IZ),Escherichia coli [4],21 mm
same,inhibition zone (IZ),Streptococcus pyogenes,20 mm
same,inhibition zone (IZ),Staphylococcus aureus [5],18 mm
same,IC50,DNA gyrase [6],375 µM
S=C(NCCc1c[nH]c2ccccc12)Nc1ccc(Cl)c(Cl)c1,MIC,Bacillus cereus,6.25 µg/mL
same,MIC,Staphylococcus aureus [7],6.25 µg/mL
same,MIC,Staphylococcus aureus [8],6.25 µg/mL
same,MIC,Bacillus subtilis [9],12.5 µg/mL
same,MIC,Staphylococcus aureus [10],6.25 µg/mL
same,MIC,Staphylococcus aureus [11],6.25 µg/mL
same,MIC,Micrococcus luteus [12],6.25 µg/mL
same,MIC,[13],12.5 µg/mL
same,MIC,Micrococcus luteus [14],6.25 µg/mL
Cc1ccc(C(=O)Nc2ccc(NC(=O)CCC(=O)NN)cc2)o1,MIC,Staphylococcus aureus [15],18.9 µM
CC(C)COc1cc(C(=O)NCC(=O)O)ccc1NC(=O)c1cc(Cl)c(Cl)[nH]1,MIC,Enterococcus faecalis [16],12.5 µM
same,IC50,DNA gyrase [17],47 µM
COc1c(NC(=O)c2ccc(NC(=O)c3ccc(NC(=O)[C@H](CC#N)NC(=O)c4ccc(NC(=O)/C(C)=C/c5ccc(C(F)(F)F)cc5)cc4)cc3)c(OC)c2O)ccc(C(=O)O)c1O,MIC,Escherichia coli [18],0.14 µM
same,MIC,Salmonella typhimurium,0.07 µM
same,MIC,Bacillus subtilis [19],0.28 µM
same,MIC,Micrococcus luteus [20],0.238 µM and 0.112 µM
COc1cc2c(cc1OCCCC(=O)Nc1cc(NC(=O)c3ccc4sccc4c3)n(C)c1)N=C[C@@H]1CCCN1C2=O,MIC,Staphylococcus aureus [21],0.5 µg/mL
same,IC50,DNA gyrase [22],1.62 µM
same,MIC,Enterococcus faecalis [23],0.5 µg/mL
same,MIC,Staphylococcus aureus [24],0.5 µg/mL
same,MIC,Enterococcus faecalis [25],0.5 µg/mL
